Converted amounts (≈) assume the structure as drawn.
How the values were obtained:
MCF7 = experiment: Cytotoxicity against human MCF7 cells; assay type: functional
BXPC-3 = experiment: Cytotoxicity against human BxPC3 cells; assay type: functional
physchem = conditions: aqueous (not further specified)
Description: Aqueous solubility of the compound

NCI-H460 = experiment: Cytotoxicity against human NCI-H460 cells; assay type: functional
DU-145 = experiment: Cytotoxicity against human DU145 cells; assay type: functional
SF-268 = experiment: Cytotoxicity against human SF268 cells; assay type: functional
KM-20L2 = experiment: Cytotoxicity against human KM20L2 cells; assay type: functional
P388 = experiment: Cytotoxicity against mouse P388 cells; assay type: functional; conditions: for EC50: read-out: ED50 (the source's name)
[1] = buffer
Description: Aqueous solubility of the compound

Row | solubility [1] | Compound | GI50 (MCF7) | GI50 (BXPC-3) | solubility (physchem) | GI50 (NCI-H460) | GI50 (DU-145) | GI50 (SF-268) | GI50 (KM-20L2) | EC50 (P388) | ED50 (P388)
1 |  | O=C1N[C@@H]2C(=C[C@H](O)[C@H]3OP(=O)([O-])O[C@H]32)c2cc3c(c(O)c21)OCO3.[Cs+] [CESIUM NARCISTATIN] | 0.62 µg/mL | 0.41 µg/mL | < 13000 µg/mL | > 1 µg/mL | 0.13 µg/mL | 0.33 µg/mL | 0.66 µg/mL | 0.183 µg/mL | 
2 |  | O=C1N[C@@H]2C(=C[C@H](O)[C@H]3OP(=O)(O)O[C@H]32)c2cc3c(c(O)c21)OCO3.c1c[nH]cn1 [IMIDAZOLIUM NARCISTATIN] | 0.9 µg/mL | 0.45 µg/mL | 5800 µg/mL | > 1 µg/mL | 0.44 µg/mL | 0.38 µg/mL | > 1 µg/mL | 0.24 µg/mL | 
3 |  | O=C1N[C@@H]2C(=C[C@H](O)[C@H]3OP(=O)([O-])O[C@H]32)c2cc3c(c(O)c21)OCO3.[Na+] [SODIUM NARCISTATIN] | 0.56 µg/mL | 0.32 µg/mL | 60000 µg/mL | > 1 µg/mL | 0.12 µg/mL | 0.23 µg/mL | 0.45 µg/mL | 0.255 µg/mL | 
4 |  | MANGANESE NARCISTATIN [listing 1 of 2 here] | 0.07 µg/mL | 0.049 µg/mL |  | 0.15 µg/mL | 0.034 µg/mL | 0.04 µg/mL | 0.13 µg/mL |  | 4.27 ×10⁻² µg/ml
5 |  | O=C1N[C@@H]2C(=C[C@H](O)[C@H]3OP(=O)([O-])O[C@H]32)c2cc3c(c([O-])c21)OCO3.[Ca+2] [CALCIUM NARCISTATIN] | 0.059 µg/mL | 0.045 µg/mL | < 1000 µg/mL | 0.12 µg/mL | 0.0093 µg/mL | 0.031 µg/mL | 0.059 µg/mL | 0.0223 µg/mL | 
6 |  | O=C1N[C@@H]2C(=C[C@H](O)[C@H]3OP(=O)([O-])O[C@H]32)c2cc3c(c(O)c21)OCO3.[Li+] [LITHIUM NARCISTATIN] | 0.31 µg/mL | 0.25 µg/mL | > 50000 µg/mL | 0.3 µg/mL | 0.13 µg/mL | 0.17 µg/mL | 0.26 µg/mL | 0.121 µg/mL | 
7 |  | O=C1N[C@@H]2C(=C[C@H](O)[C@H]3OP(=O)(O)O[C@H]32)c2cc3c(c(O)c21)OCO3.c1ccncc1 [PYRIDINIUM NARCISTATIN] | 0.27 µg/mL | 0.22 µg/mL |  | 0.27 µg/mL | 0.17 µg/mL | 0.15 µg/mL | 0.34 µg/mL | 0.191 µg/mL | 
8 |  | C=C[C@@H]1CN2CC[C@@H]1C[C@H]2[C@@H](O)c1ccnc2ccc(OC)cc12.O=C1N[C@@H]2C(=C[C@H](O)[C@H]3OP(=O)(O)O[C@H]32)c2cc3c(c(O)c21)OCO3 [QUINIDINIUM NARCISTATIN] | 0.5 µg/mL | 0.31 µg/mL |  | 0.77 µg/mL | 0.22 µg/mL | 0.25 µg/mL | 0.58 µg/mL | 0.271 µg/mL | 
9 |  | C1COCCN1.O=C1N[C@@H]2C(=C[C@H](O)[C@H]3OP(=O)(O)O[C@H]32)c2cc3c(c(O)c21)OCO3 [MORPHOLINIUM NARCISTATIN] | 0.48 µg/mL | 0.25 µg/mL | > 13000 µg/mL | > 1 µg/mL | 0.14 µg/mL | 0.24 µg/mL | 0.54 µg/mL | 0.232 µg/mL | 
10 |  | O=C1N[C@@H]2C(=C[C@H](O)[C@H]3OP(=O)([O-])O[C@H]32)c2cc3c(c([O-])c21)OCO3.[Mg+2] [MAGNESIUM NARCISTATIN] | 0.25 µg/mL | 0.19 µg/mL | < 1500 µg/mL | 0.29 µg/mL | 0.1 µg/mL | 0.14 µg/mL | 0.31 µg/mL | 0.17 µg/mL | 
11 |  | O=C1N[C@@H]2C(=C[C@H](O)[C@H]3OP(=O)([O-])O[C@H]32)c2cc3c(c(O)c21)OCO3.O=C1N[C@@H]2C(=C[C@H](O)[C@H]3OP(=O)([O-])O[C@H]32)c2cc3c(c(O)c21)OCO3.[Zn+2] [ZINC NARCISTATIN] | 0.14 µg/mL | 0.069 µg/mL | 1700 µg/mL | 0.21 µg/mL | 0.016 µg/mL | 0.053 µg/mL | 0.16 µg/mL | 0.0287 µg/mL | 
12 | < 3000 µg/mL | MANGANESE NARCISTATIN [listing 2 of 2 here] |  |  |  |  |  |  |  |  | 
13 |  | O=C1N[C@@H]2C(=C[C@H](O)[C@H]3OP(=O)(O)O[C@H]32)c2cc3c(c(O)c21)OCO3 [NARCISTATIN] | 0.35 µg/mL (≈ 0.948 µM) | 0.33 µg/mL (≈ 0.894 µM) | 4000 µg/mL (≈ 10800 µM) | 0.47 µg/mL (≈ 1.27 µM) | 0.16 µg/mL (≈ 0.433 µM) | 0.22 µg/mL (≈ 0.596 µM) | 0.53 µg/mL (≈ 1.44 µM) | 0.275 µg/mL (≈ 0.745 µM) | 
14 |  | C1CNCCN1.O=C1N[C@@H]2C(=C[C@H](O)[C@H]3OP(=O)(O)O[C@H]32)c2cc3c(c(O)c21)OCO3 [PIPERAZINIUM NARCISTATIN] | 0.17 µg/mL | 0.1 µg/mL | 1900 µg/mL | 0.24 µg/mL | 0.032 µg/mL | 0.099 µg/mL | 0.22 µg/mL | 0.0378 µg/mL | 
15 |  | O=C1N[C@@H]2C(=C[C@H](O)[C@H]3OP(=O)([O-])O[C@H]32)c2cc3c(c(O)c21)OCO3.[K+] [POTASSIUM NARCISTATIN] | 0.4 µg/mL | 0.36 µg/mL | 11000 µg/mL | 0.67 µg/mL | 0.26 µg/mL | 0.19 µg/mL | 0.56 µg/mL | 0.242 µg/mL | 
16 |  | C=C[C@@H]1CN2CC[C@@H]1C[C@@H]2[C@H](O)c1ccnc2ccc(OC)cc12.O=C1N[C@@H]2C(=C[C@H](O)[C@H]3OP(=O)(O)O[C@H]32)c2cc3c(c(O)c21)OCO3 [QUININIUM NARCISTATIN] | 0.12 µg/mL | 0.051 µg/mL |  | 0.17 µg/mL | 0.013 µg/mL | 0.045 µg/mL | 0.12 µg/mL | 0.0342 µg/mL | 
